Results reported in PubChem BioAssay AID248 (DTP/NCI, 2004).
Where “and” joins values, the source holds several entries; their conditions need not be identical. Equal entries are not always repeated. Inconclusive results and toxic doses are left out.

System: L1210 leukemia ip in BDF1 mice, survival T/C
Test: NCI In Vivo Anticancer Drug Screen. Data for tumor model L1210 Leukemia (intraperitoneal) in B6D2F1 (BDF1) mice
Conditions: endpoint: mean survival time, higher = longer survival
How it was run: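 Read-out is survival time, reported as the treated-group measurement over the vehicle-control measurement.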

[1] = dose: 75.0 mg/kg/injection, schedule: Q01DX001 (ip), vehicle: Klucel (hydroxypropylcellulose) (HPC)
[2] = dose: 100.0 mg/kg/injection, schedule: Q01DX009 (ip), vehicle: saline with Tween-80
[3] = dose: 200.0 mg/kg/injection, schedule: Q01DX009 (ip), vehicle: saline with Tween-80
[4] = dose: 400.0 mg/kg/injection, schedule: Q01DX009 (ip), vehicle: saline with Tween-80
[5] = dose: 50.0 mg/kg/injection, schedule: Q01DX001 (ip), vehicle: saline
[6] = dose: 100.0 mg/kg/injection, schedule: Q01DX001 (ip), vehicle: saline
[7] = dose: 200.0 mg/kg/injection, schedule: Q01DX001 (ip), vehicle: saline
[8] = dose: 400.0 mg/kg/injection, schedule: Q01DX001 (ip), vehicle: saline
[9] = dose: 100.0 mg/kg/injection, schedule: Q04DX003 (ip), vehicle: Klucel (hydroxypropylcellulose) (HPC)
[10] = dose: 200.0 mg/kg/injection, schedule: Q04DX003 (ip), vehicle: Klucel (hydroxypropylcellulose) (HPC)
[11] = dose: 400.0 mg/kg/injection, schedule: Q04DX003 (ip), vehicle: Klucel (hydroxypropylcellulose) (HPC)
[12] = dose: 100.0 mg/kg/injection, schedule: Q01DX009 (ip), vehicle: Klucel (hydroxypropylcellulose) (HPC)
[13] = dose: 200.0 mg/kg/injection, schedule: Q01DX009 (ip), vehicle: Klucel (hydroxypropylcellulose) (HPC)
[14] = dose: 400.0 mg/kg/injection, schedule: Q01DX009 (ip), vehicle: Klucel (hydroxypropylcellulose) (HPC)
[15] = dose: 100.0 mg/kg/injection, schedule: Q01DX009 (ip), vehicle: saline
[16] = dose: 200.0 mg/kg/injection, schedule: Q01DX009 (ip), vehicle: saline
[17] = dose: 400.0 mg/kg/injection, schedule: Q01DX009 (ip), vehicle: saline

## OCCCCCCCCCCC[n+]1ccccc1Cc1ccccc1
[1]
  T/C: 92 % of control

## CCOc1ccccc1NC(=O)Oc1ccc(-c2ccccc2)cc1
[2]
  T/C: 98 % of control
[3]
  T/C: 100 % of control
[4]
  T/C: 93 % of control

## c1cc(N=NNc2cccc(C3=NCCN3)c2)cc(C2=NCCN2)c1
dose: 7.75 mg/kg/injection, schedule: Q01DX015 (ip), vehicle: water
  T/C: 100 % of control
dose: 15.5 mg/kg/injection, schedule: Q01DX015 (ip), vehicle: water
  T/C: 94 % of control
dose: 31.0 mg/kg/injection, schedule: Q01DX015 (ip), vehicle: water
  T/C: 100 % of control
dose: 62.0 mg/kg/injection, schedule: Q01DX015 (ip), vehicle: water
  T/C: 98 % of control

## CCOP(=S)(N1CC1)N1CC1
dose: 100.0 mg/kg/injection, schedule: Q01DX001 (ip), vehicle: carboxymethylcellulose (CMC)
  T/C: 95 % of control
dose: 200.0 mg/kg/injection, schedule: Q01DX001 (ip), vehicle: carboxymethylcellulose (CMC)
  T/C: 95 % of control
dose: 400.0 mg/kg/injection, schedule: Q01DX001 (ip), vehicle: carboxymethylcellulose (CMC)
  T/C: 94 % of control

## Nc1nc(CO)c(CCCCc2ccccc2)c(=O)[nH]1
[5]
  T/C: 101 % of control
[6]
  T/C: 101 % of control
[7]
  T/C: 98 % of control
[8]
  T/C: 101 % of control

## CCOC(=O)CCCc1c[nH]c2ccccc12
[2]
  T/C: 101 % of control
dose: 100.0 mg/kg/injection, schedule: Q04DX003 (ip), vehicle: saline with Tween-80
  T/C: 95 % of control
[3]
  T/C: 101 % of control
dose: 200.0 mg/kg/injection, schedule: Q04DX003 (ip), vehicle: saline with Tween-80
  T/C: 100 % of control
[4]
  T/C: 102 % of control
dose: 400.0 mg/kg/injection, schedule: Q04DX003 (ip), vehicle: saline with Tween-80
  T/C: 95 % of control

## CC(=O)/C(=C(/C)OB(F)F)C(C)C
[5]
  T/C: 102 % of control
[6]
  T/C: 104 % of control
[7]
  T/C: 102 % of control

## CCOC(=O)C(N=Nc1ccccc1)C(C)=O (stereo not drawn)
dose: 12.5 mg/kg/injection, schedule: Q01DX009 (ip), vehicle: Klucel (hydroxypropylcellulose) (HPC)
  T/C: 100 % of control
dose: 25.0 mg/kg/injection, schedule: Q01DX009 (ip), vehicle: Klucel (hydroxypropylcellulose) (HPC)
  T/C: 97 % of control
dose: 50.0 mg/kg/injection, schedule: Q01DX009 (ip), vehicle: Klucel (hydroxypropylcellulose) (HPC)
  T/C: 94 % of control
[9]
  T/C: 103 % of control
[10]
  T/C: 100 % of control
[11]
  T/C: 88 % of control

## Nc1nc(=O)n(C2OC(CO)C(O)C2O)c2ccccc12 (stereo not drawn)
[6]
  T/C: 101 % of control
[7]
  T/C: 101 % of control
[8]
  T/C: 101 % of control

## Cc1cccn2c(=O)cc(O)nc12
[5]
  T/C: 112 % of control
[6]
  T/C: 110 % of control
[7]
  T/C: 116 % of control
[8]
  T/C: 103 % of control

## C#CCN(C)/N=N/c1nc[nH]c1C(N)=O
dose: 50.0 mg/kg/injection, schedule: Q04DX003 (ip), vehicle: Klucel (hydroxypropylcellulose) (HPC)
  T/C: 104 % of control
[12]
  T/C: 157 % of control
[9]
  T/C: 109 % of control and 116 % of control
[13]
  T/C: 118 % of control
[10]
  T/C: 108 % of control
[14]
  T/C: 88 % of control
[11]
  T/C: 117 % of control

## OCC1OC(n2ccc3c2ncn2ccnc32)C(O)C1O (stereo not drawn)
dose: 25.0 mg/kg/injection, schedule: Q01DX005 (ip), vehicle: saline
  T/C: 91 % of control
dose: 50.0 mg/kg/injection, schedule: Q01DX005 (ip), vehicle: saline
  T/C: 105 % of control
dose: 50.0 mg/kg/injection, schedule: Q01DX009 (ip), vehicle: saline
  T/C: 102 % of control
dose: 100.0 mg/kg/injection, schedule: Q01DX005 (ip), vehicle: saline
  T/C: 93 % of control
[15]
  T/C: 103 % of control

## COC(=O)C1C(C)CCCC1(C)c1ccccc1 (stereo not drawn)
dose: 100.0 mg/kg/injection, schedule: Q04DX002 (ip), vehicle: gum acacia
  T/C: 103 % of control
dose: 200.0 mg/kg/injection, schedule: Q04DX002 (ip), vehicle: gum acacia
  T/C: 106 % of control
dose: 400.0 mg/kg/injection, schedule: Q04DX002 (ip), vehicle: gum acacia
  T/C: 95 % of control

## O=C(O)CCSc1ccc2c(c1)CCCC2
dose: 100.0 mg/kg/injection, schedule: Q04DX003 (ip), vehicle: acetone
  T/C: 99 % of control
dose: 200.0 mg/kg/injection, schedule: Q04DX003 (ip), vehicle: acetone
  T/C: 100 % of control
dose: 400.0 mg/kg/injection, schedule: Q04DX003 (ip), vehicle: acetone
  T/C: 96 % of control

## OC1CCSc2ccc3ccccc3c21 (stereo not drawn)
[15]
  T/C: 114 % of control
[16]
  T/C: 104 % of control
[17]
  T/C: 104 % of control

## Cc1nc(NNCc2ccccc2)n[nH]1
dose: 37.5 mg/kg/injection, schedule: Q01DX001 (ip), vehicle: Klucel (hydroxypropylcellulose) (HPC)
  T/C: 106 % of control
[1]
  T/C: 101 % of control
dose: 150.0 mg/kg/injection, schedule: Q01DX001 (ip), vehicle: Klucel (hydroxypropylcellulose) (HPC)
  T/C: 110 % of control

## CCN(CC)c1ccc(/C=C(/S)C(=O)O)cc1
[6]
  T/C: 89 % of control
[7]
  T/C: 92 % of control
[8]
  T/C: 92 % of control

## CC(=O)NC1CCC(C)CC1 (stereo not drawn)
[5]
  T/C: 109 % of control
dose: 100.0 mg/kg/injection, schedule: Q01DX001 (ip), vehicle: Klucel (hydroxypropylcellulose) (HPC)
  T/C: 93 % of control
[6]
  T/C: 93 % of control
[7]
  T/C: 102 % of control

## CCCCCCCCCCCCCCCCCC(=O)N/N=C/c1ccc(N(C)C)cc1
[12]
  T/C: 93 % of control
[13]
  T/C: 94 % of control
[14]
  T/C: 98 % of control

## CCCn1c(=S)[nH]c2ccccc2c1=O
[15]
  T/C: 95 % of control
dose: 100.0 mg/kg/injection, schedule: Q04DX003 (ip), vehicle: saline
  T/C: 88 % of control
[16]
  T/C: 107 % of control
dose: 200.0 mg/kg/injection, schedule: Q04DX003 (ip), vehicle: saline
  T/C: 86 % of control
[17]
  T/C: 101 % of control
dose: 400.0 mg/kg/injection, schedule: Q04DX003 (ip), vehicle: saline
  T/C: 96 % of control

## Clc1nc(N2CC2)nc(N2CC2)n1
dose: 2.5 mg/kg/injection, schedule: Q01DX001 (ip), vehicle: carboxymethylcellulose (CMC)
  T/C: 112 % of control
dose: 5.0 mg/kg/injection, schedule: Q01DX001 (ip), vehicle: carboxymethylcellulose (CMC)
  T/C: 112 % of control
dose: 10.0 mg/kg/injection, schedule: Q01DX001 (ip), vehicle: carboxymethylcellulose (CMC)
  T/C: 117 % of control
dose: 15.0 mg/kg/injection, schedule: Q01DX001 (ip), vehicle: carboxymethylcellulose (CMC)
  T/C: 114 % of control

## Clc1ccc(C2=Nc3cccc4cccc(c34)N2)cc1Cl
dose: 15.0 mg/kg/injection, schedule: Q01DX Z (ip), vehicle: saline
  T/C: 97 % of control
dose: 30.0 mg/kg/injection, schedule: Q01DX Z (ip), vehicle: saline
  T/C: 105 % of control
dose: 60.0 mg/kg/injection, schedule: Q01DX Z (ip), vehicle: saline
  T/C: 100 % of control
dose: 60.0 mg/kg/injection, schedule: Q01DX Z (oral), vehicle: saline
  T/C: 91 % of control
dose: 120.0 mg/kg/injection, schedule: Q01DX Z (oral), vehicle: saline
  T/C: 96 % of control
dose: 240.0 mg/kg/injection, schedule: Q01DX Z (oral), vehicle: saline
  T/C: 94 % of control
dose: 480.0 mg/kg/injection, schedule: Q01DX Z (oral), vehicle: saline
  T/C: 98 % of control
